One assay concerns the target Histone deacetylase 1 (Homo sapiens, UniProt Q13547). Put plainly: Inhibition of recombinant HDAC1 (unknown origin) incubated for 10 mins using Boc-Lys(acetyl)-AMC fluorogenic substrate by homogeneous fluorescence release assay.
The next assay addresses T1, Histone deacetylase 8 (Homo sapiens, UniProt Q9BY41).
T1 sequence (Q9BY41 whole entry): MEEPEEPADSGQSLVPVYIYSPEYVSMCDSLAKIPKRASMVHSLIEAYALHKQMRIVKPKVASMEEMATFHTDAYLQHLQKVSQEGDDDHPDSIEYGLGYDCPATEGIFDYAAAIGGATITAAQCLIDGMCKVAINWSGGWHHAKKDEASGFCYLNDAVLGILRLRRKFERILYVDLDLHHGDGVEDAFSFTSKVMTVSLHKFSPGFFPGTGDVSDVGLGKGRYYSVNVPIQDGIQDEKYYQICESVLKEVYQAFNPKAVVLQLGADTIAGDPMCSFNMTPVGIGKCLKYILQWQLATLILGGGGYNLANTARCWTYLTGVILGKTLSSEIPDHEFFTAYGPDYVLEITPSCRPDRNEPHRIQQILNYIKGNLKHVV
Put plainly: Inhibition of recombinant HDAC8 (unknown origin) incubated for 10 mins using Boc-Lys(acetyl)-AMC fluorogenic substrate by homogeneous fluorescence release assay.

In a further assay the target is Histone deacetylase 2 (Homo sapiens, UniProt Q92769). Put plainly: Inhibition of recombinant HDAC2 (unknown origin) incubated for 10 mins using Boc-Lys(acetyl)-AMC fluorogenic substrate by homogeneous fluorescence release assay.
Sequence of Histone deacetylase 2 (Q92769 whole entry): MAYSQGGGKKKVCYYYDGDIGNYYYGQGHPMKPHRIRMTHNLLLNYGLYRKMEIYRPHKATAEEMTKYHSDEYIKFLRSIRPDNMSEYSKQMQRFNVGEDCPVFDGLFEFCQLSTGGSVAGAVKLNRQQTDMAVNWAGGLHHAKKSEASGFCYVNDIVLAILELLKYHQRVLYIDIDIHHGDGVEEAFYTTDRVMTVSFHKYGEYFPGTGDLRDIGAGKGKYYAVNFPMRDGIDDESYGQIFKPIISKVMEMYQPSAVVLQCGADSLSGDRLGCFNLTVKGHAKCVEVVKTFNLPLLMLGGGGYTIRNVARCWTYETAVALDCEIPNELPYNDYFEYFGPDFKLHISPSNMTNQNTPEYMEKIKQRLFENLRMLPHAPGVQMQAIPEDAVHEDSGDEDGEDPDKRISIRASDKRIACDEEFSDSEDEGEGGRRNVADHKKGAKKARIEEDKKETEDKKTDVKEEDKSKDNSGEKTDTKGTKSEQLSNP
In the next assay the test system is U-937. The assay is described as follows: Antiproliferative activity against human U937 cells incubated for 72 hrs by MTT assay. Type of assay: functional, cell-based. Particulars: U-937, 72 h. A general note: Formazan colour is commonly taken as a measure of viable cells.
Another assay relates to A549. The assay is described as follows: cells. The settings on record: Homo sapiens, A549, 72 h.
The test system of the next assay is NCI-H661. The assay is described as follows: Antiproliferative activity against human NCI-H661 cells incubated for 72 hrs by MTT assay. Particulars: NCI-H661, 72 h. In kind it is functional, cell-based.
Assay [1] addresses Histone deacetylase. Put plainly: Inhibition of histone deacetylase (unknown origin) by cell-free assay. In kind it is protein assay, Homo sapiens.
Assay [2] has as its target Histone deacetylase. The assay is described as follows: Inhibition of histone deacetylase (unknown origin) by intracellular cell based assay. Set-up: species or system Homo sapiens.

SMILES strings stand for the structures.

Sequence of Histone deacetylase 1 (Q13547 whole entry): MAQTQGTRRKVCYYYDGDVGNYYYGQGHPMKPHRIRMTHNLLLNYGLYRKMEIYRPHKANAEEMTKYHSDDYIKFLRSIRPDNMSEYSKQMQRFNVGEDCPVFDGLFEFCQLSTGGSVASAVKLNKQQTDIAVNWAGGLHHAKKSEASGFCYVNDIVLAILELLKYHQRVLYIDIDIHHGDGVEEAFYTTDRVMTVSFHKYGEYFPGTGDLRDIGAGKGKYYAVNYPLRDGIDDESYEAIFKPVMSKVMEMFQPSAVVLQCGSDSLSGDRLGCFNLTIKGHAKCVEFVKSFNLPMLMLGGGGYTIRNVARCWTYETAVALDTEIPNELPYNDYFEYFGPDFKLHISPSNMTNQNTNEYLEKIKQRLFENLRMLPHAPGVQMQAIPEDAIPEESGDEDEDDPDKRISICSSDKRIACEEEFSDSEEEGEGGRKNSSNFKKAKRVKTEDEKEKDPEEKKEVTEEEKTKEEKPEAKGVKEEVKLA
Description for A549: Antiproliferative activity against human A549 cells incubated for 72 hrs by MTT assay

For orientation: IC50 means the concentration at which inhibition is half-maximal. For `O=C(CCCCCCc1nc(-c2cccs2)no1)C(F)(F)F`, the IC50 at Histone deacetylase 1 was 5.17 µM; on Histone deacetylase 8 it was 0.95 µM; on Histone deacetylase 2, 1.63 µM; in the assay with U-937, 1.28 µM; in the assay on A549, 11.7 µM; in the assay with NCI-H661 it was 7.53 µM.
For the compound `O=C(CCCCCc1nc2cc3ccccc3cc2[nH]1)C(F)(F)F`, the IC50 against Histone deacetylase [1] turned out to be 0.6 µM; against Histone deacetylase [2], 1.8 µM.
